Reference: PMC9317966, “Structure-function analysis of the AMPK activator SC4 and identification of a potent pan AMPK activator” (Biochemical Journal, 2022)

Legend:
[1] = system: COS7 cells; assay: Immunoblot of AMPK signalling in COS7 cells; format: cell-based; settings: COS7, 2.5 µM, 1 h
Method: (§1) To evaluate the efficacy of MSG011 in cellulo, we incubated mouse primary hepatocytes with 2.5 µM MSG011 for 60 min and tracked changes in phosphorylation of AMPK α-Thr172 (marker of activation) and the AMPK substrate acetyl-CoA carboxylase (ACC) Ser79 (AMPK signalling marker).
(§2) HEK293T/17, HEK293T, COS7, HeLa and PC3 cells (ATCC) were maintained in Dulbecco's Modified Eagle's medium (DMEM; Sigma–Aldrich) supplemented with 10% fetal bovine serum (FBS; Assay Matrix) at 37°C and 5% CO2. Primary hepatocytes from wild type mice were prepared using the collagenase perfusion method and cultured as described previously. Cultures were incubated with fresh DMEM (no FBS) for 2 h prior to 1 h treatment with MSG011 (dissolved in DMSO) or phenformin (dissolved in H2O). Adherent HEK293T/17 cells at ∼50% confluency were triply transfected with AMPK α1 (pcDNA3.1 vector), β1 (COOH-terminal MYC fusion, pcDNA3.1 vector) and WT γ1 or γ1-R299G mutant (NH2-terminal HA fusion, pMT2 vector) in the presence of FuGENE HD transfection reagent (Promega) as per the manufacturers protocol. […]
(§3) All samples were separated on 12% SDS–PAGE gels and transferred to an Immobilon-FL PVDF membrane (Merck Millipore). […] Immunoblots were visualised on the Odyssey Infrared Imaging System (LI-COR Biosciences) and immunoreactive bands analysed and quantified using Image Studio Software (LI-COR Biosciences).

[2] = system: HeLa cells; assay: Immunoblot of AMPK signalling in HeLa cells; format: cell-based; settings: 2.5 µM, 1 h
Method: as §1, §2, §3

[3] = system: mouse primary hepatocytes; assay: Immunoblot of AMPK signalling in mouse primary hepatocytes; format: cell-based; settings: 2.5 µM, 60 min
Method: as §1, §2, §3

[4] = system: HEK293T cells; assay: Adenylate energy charge by LC-MS in HEK293T cells; format: cell-based; settings: MSG011 up to 40 µM, 1 h
Method: HEK293T cell cultures grown in six-well plates were gently washed in ice cold PBS, lysed with 150 µl of ice cold 0.5 M perchloric acid (Univar) and clarified by centrifugation (16 000g, 3 min, 4°C). An amount of 75 µl of clarified lysate was neutralised with 25 µl of ice cold 2.3 M KHCO3 (Sigma–Aldrich), incubated on ice for 5 min and then centrifuged (16 000g, 3 min, 4°C). Supernatants were collected for analysis by liquid chromatography mass spectrometry–mass spectrometry (LC–MS/MS).
Adenine nucleotide metabolites were measured by LC–MS/MS with modifications to our previously described method. A QTRAP 5500 mass spectrometer (AB Sciex) was operated with the turbo V ion source linked to Prominence UFLCXR LC-20ADXR pumps (Shimadzu), SIL-20AC HT autosampler (Shimadzu) and CTO-20A HPLC column oven (Shimadzu). Both LC and MS instruments were controlled and managed with the Analyst 1.7.1 software (AB Sciex). Nitrogen was provided by a Genius NM3G nitrogen gas generator (PEAK Scientific). […] Data was analysed with MultiQuant 3.0.2 software (AB Sciex) using area under the LC curve. Calibration curves were determined by linear regression of the peak area ratio of each nucleotide and were required to have a correlation coefficient (R^2) of >0.98. […] AEC was calculated from the ratios of [AMP], [ADP] and [ATP] […]

[5] = system: rodent and non-human primate models of T2DM; design: method as in PMID 28705990; settings: cited from earlier work
[6] = system: HEK293T/17 cells expressing WT γ1AMPK; assay: α-Thr172 phosphorylation immunoblot, HEK293T/17 cells transiently expressing WT γ1AMPK; format: cell-based; settings: WT γ1-expressing cells, 2.5 µM, 60 min
Method: To explore this dose-dependent response, we used HEK293T/17 cells transiently expressing WT γ1AMPK or the AMP-insensitive γ1 mutant R299G (Supplementary Figure S4A). […] One explanation is that 2.5 µM MK-8722 caused indirect activation of AMPK (α-Thr172 phosphorylation) by inducing a metabolic stress leading to rises in AMP/ATP and ADP/ATP ratios. We examined the effect of MK-8722 incubation on C2C12 mitochondrial function (Supplementary Figure S4B–I).
HEK293T/17, HEK293T, COS7, HeLa and PC3 cells (ATCC) were maintained in Dulbecco's Modified Eagle's medium (DMEM; Sigma–Aldrich) supplemented with 10% fetal bovine serum (FBS; Assay Matrix) at 37°C and 5% CO2. Primary hepatocytes from wild type mice were prepared using the collagenase perfusion method and cultured as described previously. […]
as §3
Lysates were assessed for phosphorylation of AMPKα-Thr172 by immunoblot. n = 3, data presented as mean T172 phosphorylation (arbitrary units) ± SEM. […] (J) Lysates were assessed for total protein content following the respiration assay.

SMILES	AMPK signalling (phosphorylation of ACC-Ser79 and raptor-Ser792) [1]	AMPK signalling (phosphorylation of ACC-Ser79 and raptor-Ser792) [2]	phosphorylation of AMPK α-Thr172 [3]	adenylate energy charge (AEC) [4]	cardiac hypertrophy ([5]; lean and diabetic animal models)	key disease hallmarks (systemic glucose clearance, glycaemic control) ([5]; rodent and non-human primate models of T2DM)	phosphorylation of α-Thr172 [6]
CC(=O)NC1CC=C(c2ccc(-c3nc4nc(Oc5ccc(C)c(C(=O)O)c5)[nH]c4cc3Cl)cc2)CC1 (stereo not shown) [MSG011, 5-((5-(4′-Acetamido-2′,3′,4′,5′-tetrahydro-[1,1′-biphenyl]-4-yl)-6-chloro-1H-imidazo[4,5-b]pyridin-2-yl)oxy)-2-methylbenzoic acid]	at levels comparable to extreme energy stress	significantly activated AMPK	independently of significant net phosphorylation of AMPK α-Thr172	unaffected			
O[C@@H]1CO[C@H]2[C@@H]1OC[C@H]2Oc1nc2nc(-c3ccc(-c4ccccc4)cc3)c(Cl)cc2[nH]1 [MK-8722, reference compound]					reversible cardiac hypertrophy	robust improvements in key disease hallmarks	significantly increased
